Measurements taken from US20240368203A1, “DEGRADATION OF (EGFR) BY CONJUGATION OF EGFR INHIBITORS WITH E3 LIGASE LIGAND AND METHODS OF USE” (BeiGene, Ltd., priority 2022, published 2024).

Assays:
[1] = target: T1, EGFR-L858R/T790M/C797S (Homo sapiens, UniProt P00533, C797S/L858R/T790M); assay: EGFR degradation HTRF assay in H1975-clone #25 cells; type: cell-based; conditions: 16 h treatment; for DC50: H1975-clone #25 (L858R/T790M/C797S) cells, IC50 (DC50), read-out: DC50(nM) H1975 # 25-LTC; for Dmax: NCI-H1975, H1975-clone #25 (L858R/T790M/C797S) cells, maximum percentage of inhibition (degradation), read-out: Dmax (%) H1975 # 25-LTC
T1 construct: expressed in transfected cells; host or cells: H1975-clone #25 (lentiviral over-expression, endogenous EGFR knocked out)
Method in brief: (§1)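 H1975 clones with endogenous EGFR knocked out, homozygously expressing lentiviral L858R/T790M/C797S (#25) or Del19/T790M/C797S (#28), treated 16 h at 37° C with 8 doses from 10 uM, 5-fold, in 0.2% DMSO. EGFR in lysates measured by HTRF overnight; DC50 from four-parameter fit of % degradation.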

[2] = tested on: EGFR-Del19/T790M/C797S; assay: EGFR degradation HTRF assay in H1975-clone #28 cells; type: cell-based; conditions: H1975-clone #28 (Del19/T790M/C797S) cells, 16 h treatment; for DC50: IC50 (DC50), read-out: DC50(nM) H1975 # 28 DTC; for Dmax (%) H1975 # 28 DTC: maximum percentage of inhibition (degradation)
Method in brief: as §1

T1 sequence (P00533 25-1210 T790M/C797S/L858R): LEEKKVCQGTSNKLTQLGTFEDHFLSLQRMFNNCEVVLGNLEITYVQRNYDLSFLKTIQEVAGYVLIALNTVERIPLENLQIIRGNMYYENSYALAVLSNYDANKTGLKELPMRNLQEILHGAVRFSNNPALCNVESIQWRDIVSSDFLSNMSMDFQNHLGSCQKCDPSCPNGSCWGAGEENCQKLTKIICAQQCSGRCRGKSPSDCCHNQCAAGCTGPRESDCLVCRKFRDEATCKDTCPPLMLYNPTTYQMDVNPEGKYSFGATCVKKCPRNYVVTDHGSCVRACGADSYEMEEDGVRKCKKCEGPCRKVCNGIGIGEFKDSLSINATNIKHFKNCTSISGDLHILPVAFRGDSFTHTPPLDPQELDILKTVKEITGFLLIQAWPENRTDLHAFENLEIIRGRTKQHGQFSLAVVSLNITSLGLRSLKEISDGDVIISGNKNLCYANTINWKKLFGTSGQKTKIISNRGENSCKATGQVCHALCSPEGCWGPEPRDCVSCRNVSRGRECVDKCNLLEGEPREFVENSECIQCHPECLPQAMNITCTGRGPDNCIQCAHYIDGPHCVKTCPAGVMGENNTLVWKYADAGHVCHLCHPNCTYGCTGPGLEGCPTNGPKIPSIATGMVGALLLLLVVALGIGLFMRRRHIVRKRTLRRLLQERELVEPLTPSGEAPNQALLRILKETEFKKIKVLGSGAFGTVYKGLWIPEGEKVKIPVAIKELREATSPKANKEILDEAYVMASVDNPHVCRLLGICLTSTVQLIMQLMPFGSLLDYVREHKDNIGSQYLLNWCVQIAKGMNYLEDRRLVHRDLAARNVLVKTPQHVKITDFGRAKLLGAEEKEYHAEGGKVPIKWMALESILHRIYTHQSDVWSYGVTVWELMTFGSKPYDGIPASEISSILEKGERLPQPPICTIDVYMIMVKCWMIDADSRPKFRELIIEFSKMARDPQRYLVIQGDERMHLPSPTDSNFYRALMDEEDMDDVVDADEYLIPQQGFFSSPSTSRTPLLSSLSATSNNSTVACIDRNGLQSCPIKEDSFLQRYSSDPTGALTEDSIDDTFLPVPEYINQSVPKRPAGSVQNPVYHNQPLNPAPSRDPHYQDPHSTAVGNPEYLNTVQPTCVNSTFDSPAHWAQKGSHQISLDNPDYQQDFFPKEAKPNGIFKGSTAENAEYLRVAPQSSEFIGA

| DC50 [1] [nM] | Dmax [1] [%] | DC50 [2] [nM] | Structure (SMILES) | Dmax (%) H1975 # 28 DTC [2] [%] |
| --- | --- | --- | --- | --- |
| 8.6 | 89 | 7.4 | CCc1cc(Nc2ncc(Br)c(Nc3ccc4nc(C)c(F)cc4c3P(C)(C)=O)n2)c(OC)cc1N1CCC2(CC1)CCN(C1CN(c3cc(F)c([C@H]4CCC(=O)NC4=O)c(F)c3)C1)CC2 [Example 38, (R)-3-(4-(3-(9-(4-((5-bromo-4-((5-(dimethylphosphoryl)-3-fluoro-2-methylquinolin-6-yl)amino)pyrimidin-2-yl)amino)-2-ethyl-5-methoxyphenyl)-3,9-diazaspiro[5.5]undecan-3-yl)azetidin-1-yl)-2,6-difluorophenyl)piperidine-2,6-dione] | 85 |
| 2.1 | 91 | 1.9 | CCc1ccc2c(P(C)(C)=O)c(Nc3nc(Nc4cc(CC)c(N5CCC(N6CC(N7CCC(c8cc(F)c([C@H]9CCC(=O)NC9=O)c(F)c8)CC7)C6)CC5)cc4OC)ncc3Br)ccc2n1 [Example 14, (R)-3-(4-(1-(1-(1-(4-((5-bromo-4-((5-(dimethylphosphoryl)-2-ethylquinolin-6-yl)amino)pyrimidin-2-yl)amino)-2-ethyl-5-methoxyphenyl)piperidin-4-yl)azetidin-3-yl)piperidin-4-yl)-2,6-difluorophenyl)piperidine-2,6-dione] | 89 |
| 4.2 | 88 | 4.2 | CCc1cc(Nc2ncc(Cl)c(Nc3ccc4nc(C)c(F)cc4c3P(C)(C)=O)n2)c(OC)cc1N1CCC2(CCN(CCc3cc(F)c([C@H]4CCC(=O)NC4=O)c(F)c3)CC2)CC1 [Example 41, (R)-3-(4-(2-(9-(4-((5-chloro-4-((5-(dimethylphosphoryl)-3-fluoro-2-methylquinolin-6-yl)amino)pyrimidin-2-yl)amino)-2-ethyl-5-methoxyphenyl)-3,9-diazaspiro[5.5]undecan-3-yl)ethyl)-2,6-difluorophenyl)piperidine-2,6-dione] | 86 |
| 2.8 | 95 | 1.9 | CCc1ncc2c(P(C)(C)=O)c(Nc3nc(Nc4cc(CC)c(N5CCC6(CC5)CCN(C5CCN(c7cc(F)c([C@H]8CCC(=O)NC8=O)c(F)c7)CC5)CC6)cc4OC)ncc3Br)ccc2n1 [Example 3, (R)-3-(4-(4-(9-(4-((5-bromo-4-((5-(dimethylphosphoryl)-2-ethylquinazolin-6-yl)amino)pyrimidin-2-yl)amino)-2-ethyl-5-methoxyphenyl)-3,9-diazaspiro[5.5]undecan-3-yl)piperidin-1-yl)-2,6-difluorophenyl)piperidine-2,6-dione] | 91 |
| 5.6 | 90 | 8.2 | CCc1cc(Nc2ncc(Br)c(Nc3ccc4nc(C)c(F)cc4c3P(C)(C)=O)n2)c(OC)cc1N1CCC(N2CC(CN3CCC(c4cc(F)c([C@H]5CCC(=O)NC5=O)c(F)c4)CC3)C2)CC1 [Example 56, (R)-3-(4-(1-((1-(1-(4-((5-bromo-4-((5-(dimethylphosphoryl)-3-fluoro-2-methylquinolin-6-yl)amino)pyrimidin-2-yl)amino)-2-ethyl-5-methoxyphenyl)piperidin-4-yl)azetidin-3-yl)methyl)piperidin-4-yl)-2,6-difluorophenyl)piperidine-2,6-dione] | 86 |
| 2.8 | 90 | 1.7 | CCc1cc(Nc2ncc(Br)c(Nc3ccc4nc(C)c(F)cc4c3P(C)(C)=O)n2)c(OC)cc1N1CCC2(CCN(CC3CCN(c4ccc5c(c4)CN(C4CCC(=O)NC4=O)C5=O)CC3)CC2)CC1 (centres unmarked) [Example 48, 3-(5-(4-((9-(4-((5-bromo-4-((5-(dimethylphosphoryl)-3-fluoro-2-methylquinolin-6-yl)amino)pyrimidin-2-yl)amino)-2-ethyl-5-methoxyphenyl)-3,9-diazaspiro[5.5]undecan-3-yl)methyl)piperidin-1-yl)-1-oxoisoindolin-2-yl)piperidine-2,6-dione] | 83 |
| 1.1 | 95 | 0.5 | CCc1cc(Nc2ncc(Br)c(Nc3ccc4nc(C)c(F)cc4c3P(C)(C)=O)n2)c(OC)cc1N1CCC(N2CC3(CN(c4cc(F)c([C@H]5CCC(=O)NC5=O)c(F)c4)C3)C2)CC1 [Example 60, (R)-3-(4-(6-(1-(4-((5-bromo-4-((5-(dimethylphosphoryl)-3-fluoro-2-methylquinolin-6-yl)amino)pyrimidin-2-yl)amino)-2-ethyl-5-methoxyphenyl)piperidin-4-yl)-26-diazaspiro[3.3]heptan-2-yl)-2,6-difluorophenyl)piperidine-2,6-dione] | 95 |
| 2.5 | 92 | 2.9 | CCc1cc(Nc2ncc(Cl)c(Nc3ccc4nc(C)c(F)cc4c3P(C)(C)=O)n2)c(OC)cc1N1CCC(N2CCC(N3CCN(c4cc(F)c([C@H]5CCC(=O)NC5=O)c(F)c4)CC3)CC2)CC1 [Example 12, (R)-3-(4-(4-(1′-(4-((5-chloro-4-((5-(dimethylphosphoryl)-3-fluoro-2-methylquinolin-6-yl)amino)pyrimidin-2-yl)amino)-2-ethyl-5-methoxyphenyl)-[1,4′-bipiperidin]-4-yl)piperazin-1-yl)-2,6-difluorophenyl)piperidine-2,6-dione] | 91 |
| 1.4 | 95 | 3.3 | COc1cc(N2CCC3(CC2)CCN(C2CCN(c4cc(F)c([C@H]5CCC(=O)NC5=O)c(F)c4)CC2)CC3)c(C)cc1Nc1ncc(Br)c(Nc2ccc3nc(C)c(F)cc3c2P(C)(C)=O)n1 [Example 37, (R)-3-(4-(4-(9-(4-((5-bromo-4-((5-(dimethylphosphoryl)-3-fluoro-2-methylquinolin-6-yl)amino)pyrimidin-2-yl)amino)-5-methoxy-2-methylphenyl)-3,9-diazaspiro[5.5]undecan-3-yl)piperidin-1-yl)-2,6-difluorophenyl)piperidine-2,6-dione] | 90 |
| 7.6 | 89 | 3.8 | CCc1cc(Nc2ncc(Br)c(Nc3ccc4nc(C)c(F)cc4c3P(C)(C)=O)n2)c(OC)cc1N1CCC2(CCN(C[C@@H]3CCN(c4ccc5c(c4)C(=O)N(C4CCC(=O)NC4=O)C5=O)C3)CC2)CC1 (stereo partly drawn) [Example 49, 5-((S)-3-((9-(4-((5-bromo-4-((5-(dimethylphosphoryl)-3-fluoro-2-methylquinolin-6-yl)amino)pyrimidin-2-yl)amino)-2-ethyl-5-methoxyphenyl)-3,9-diazaspiro[5.5]undecan-3-yl)methyl)pyrrolidin-1-yl)-2-(2,6-dioxopiperidin-3-yl)isoindoline-1,3-dione] | 82 |
| 2.7 | 90 | 4.5 | CCOc1cc(N2CCC(N3CCC4(CC3)CN(c3cc(F)c([C@H]5CCC(=O)NC5=O)c(F)c3)C4)CC2)c(CC)cc1Nc1ncc(Cl)c(Nc2ccc3nc(C)c(F)cc3c2P(C)(C)=O)n1 [Example 57, (R)-3-(4-(7-(1-(4-((5-chloro-4-((5-(dimethylphosphoryl)-3-fluoro-2-methylquinolin-6-yl)amino)pyrimidin-2-yl)amino)-5-ethoxy-2-ethylphenyl)piperidin-4-yl)-2,7-diazaspiro[3.5]nonan-2-yl)-2,6-difluorophenyl)piperidine-2,6-dione] | 88 |
| 8.2 | 85 | 3.3 | CCc1cc(Nc2ncc(Br)c(Nc3ccc4nc(C)c(F)cc4c3P(C)(C)=O)n2)c(OC)cc1N1CCC2(CC1)CCN(C1CCN(c3ccc4c(c3)C(=O)N(C3CCC(=O)NC3=O)C4=O)CC1)CC2 (centres unmarked) [Example 92, 5-(4-(9-(4-((5-bromo-4-((5-(dimethylphosphoryl)-3-fluoro-2-methylquinolin-6-yl)amino)pyrimidin-2-yl)amino)-2-ethyl-5-methoxyphenyl)-3,9-diazaspiro[5.5]undecan-3-yl)piperidin-1-yl)-2-(2,6-dioxopiperidin-3-yl)isoindoline-1,3-dione] | 67 |
| 4.5 | 94 | 3.1 | COc1cc(N2CCC3(CC2)CCN(C2CCN(c4cc(F)c([C@H]5CCC(=O)NC5=O)c(F)c4)CC2)CC3)c(C)cc1Nc1ncc(Br)c(Nc2ccc3nccnc3c2P(C)(C)=O)n1 [Example 36, (R)-3-(4-(4-(9-(4-((5-bromo-4-((5-(dimethylphosphoryl)quinoxalin-6-yl)amino)pyrimidin-2-yl)amino)-5-methoxy-2-methylphenyl)-3,9-diazaspiro [5.5]undecan-3-yl)piperidin-1-yl)-2,6-difluorophenyl)piperidine-2,6-dione] | 93 |
| 6 | 86 | 2.4 | CCc1ncc2c(P(C)(C)=O)c(Nc3nc(Nc4cc(CC)c(N5CCC6(CCN(CCc7cc(F)c([C@H]8CCC(=O)NC8=O)c(F)c7)CC6)CC5)cc4OC)ncc3Br)ccc2n1 [Example 40, (R)-3-(4-(2-(9-(4-((5-bromo-4-((5-(dimethylphosphoryl)-2-ethylquinazolin-6-yl)amino)pyrimidin-2-yl)amino)-2-ethyl-5-methoxyphenyl)-3,9-diazaspiro[5.5]undecan-3-yl)ethyl)-2,6-difluorophenyl)piperidine-2,6-dione] | 88 |
